Data set [1] concerns Mus musculus. The data set can be described thus: Hepatoprotective activity in mouse model of D-GaIN/LPS-induced liver injury assessed as inhibition of beta-glucuronidase secretion at […] relative to control. Type of data set: functional. Details: scale not given: the % may be the effect or the level left. The conditions noted are these: dose 10 µg/ml.
Data set [2] in a line: Hepatotoxicity in CCl4-induced liver damage in ICR mouse model assessed as reduction in sGPT level at 10 mg/kg relative to control. Also on record: scale not given: the % may be the effect or the level left. The following applies: in vivo. Type of data set: toxicity, organism-based.
A short description of data set [3]: Hepatotoxicity in CCl4-induced liver damage in ICR mouse model assessed as reduction in sGOT level at 10 mg/kg relative to control. The conditions noted are these: in vivo. Details: scale not given: the % may be the effect or the level left. Type of data set: toxicity, organism-based.
The nature of data set [4]: Antiproliferative activity against rat HSC-T6 assessed as reduction in cell viability at 100 uM measured at 48 hrs by MTT assay relative to control. Type of data set: functional.
The test system of data set [5] is Hepatocyte. The data set can be described thus: Hepatoprotective activity against D-GaIN/TNFalpha induced cell death in mouse hepatocytes assessed as cell survival rate at 50 uM relative to control. Type of data set: functional.
The test system of data set [6] is Hepatocyte. The data set can be described thus: Hepatoprotective activity against D-GaIN/TNFalpha induced cell death in mouse hepatocytes assessed as cell survival rate at 200 uM relative to control. Type of data set: functional.
For data set [7], the system named is Hepatocyte. In words: Hepatoprotective activity against D-GaIN/TNFalpha induced cell death in mouse hepatocytes assessed as cell survival rate at 100 uM relative to control. Type of data set: functional.
The species named for data set [8] is Mus musculus. In words: Hepatoprotective activity in mouse liver homogenate assessed as inhibition of iron/ascorbate lipid peroxidation at 5.0 mg/mL relative to control. Type of data set: functional. Details: scale not given: the % may be the effect or the level left.
Data set [9] deals with HepG2. The data set can be described thus: Hepatoprotective activity against H2O2-induced cell death in human HepG2 cells assessed as elevated level AST at 65.7 uM. Type of data set: functional.
Data set [10] has as its system HepG2. In words: Hepatoprotective activity against H2O2-induced cell death in human HepG2 cells assessed as elevated level ALT at 65.7 uM. Type of data set: functional.
Data set [11] deals with Rattus norvegicus. In words: Hepatoprotective activity in CCl4-induced rat model assessed as elevated level of bilirubin at 20 mg/kg relative to control. Type of data set: functional.
The test system of data set [12] is Rattus norvegicus. In words: Hepatoprotective activity in CCl4-induced rat model assessed as elevated level of GOT at 20 mg/kg relative to control. Type of data set: functional.
Data set [13] has as its system Rattus norvegicus. In words: Hepatoprotective activity in CCl4-induced rat model assessed as elevated level of GPT at 10 mg/kg relative to control. Type of data set: functional.
The test system of data set [14] is Rattus norvegicus. The data set can be described thus: Hepatoprotective activity in CCl4-induced rat model assessed as elevated level of GOT at 10 mg/kg relative to control. Type of data set: functional.
For data set [15], the system named is Rattus norvegicus. In words: Hepatoprotective activity in CCl4-induced rat model assessed as elevated level of bilirubin at 10 mg/kg relative to control. Type of data set: functional.
For data set [16], the system named is Rattus norvegicus. In words: Hepatoprotective activity in CCl4-induced rat model assessed as elevated level of GPT at 20 mg/kg relative to control. Type of data set: functional.
Data set [17] has as its system Rattus norvegicus. In words: Hepatoprotective activity in CCl4-induced rat model assessed as elevated level of ALP at 10 mg/kg relative to control. Type of data set: functional.
The test system of data set [18] is Rattus norvegicus. In words: Hepatoprotective activity in CCl4-induced rat model assessed as elevated level of ALP at 20 mg/kg relative to control. Type of data set: functional.

Turning to `CC(C)=CCC[C@]1(C)CC[C@]2(C)[C@H]3CC=C4[C@@H](CC[C@H](O)C4(C)C)[C@]3(C)CC[C@@]2(C)C1`, the Activity in the data set on Mus musculus [1] was found to be 57%.

For the compound `C=C(C)[C@@H]1CC[C@]2(C)CC[C@]3(C)[C@H](CC[C@@H]4[C@@]5(C)CC[C@@H](OC(=O)CCCCCCCCCCCCCCC)C(C)(C)[C@@H]5CC[C@]43C)[C@@H]12`, the figures for the Activity in data set [2] and in data set [3] were 6.9% and 9.2%, respectively.

On to `C[C@H]1[C@@H](O)CC[C@@H]2[C@]1(C)CC[C@H]1[C@@]2(C)CC[C@@]2(C)[C@@H]3CC(C)(C)CC[C@]3(C)CC[C@]12C` [EPIFRIEDELINOL], for which the Activity in [4] was found to be 61%.

Take `C=C(C)[C@@H]1CC[C@]2(C(=O)O)CC[C@]3(C)[C@H](CC[C@@H]4[C@@]5(C)CC[C@H](O)C(C)(C)[C@@H]5CC[C@]43C)[C@@H]12` [BETULINIC ACID]: the Activity in the data set with Hepatocyte [5] was 39.2%; in the data set with Hepatocyte [6], 23%; in the data set on Hepatocyte [7], 26.1%; in the data set filed under Mus musculus [8], 52.7%.

Consider `C[C@H]1C(=O)CC[C@@H]2[C@]1(C)CC[C@H]1[C@@]2(C)CC[C@@]2(C)[C@@H]3CC(C)(C)CC[C@]3(C)CC[C@]12C` [FRIEDELINE], for which the values for the Activity in the data set with HepG2 [9] and with HepG2 [10] were 67.5% and 30.8%, respectively.

Turning to `CC(C)[C@@H]1CC[C@@H]2C3=CC[C@@H]4[C@@]5(C)CC[C@@H](O)C(C)(C)[C@@H]5CC[C@@]4(C)[C@]3(C)CC[C@]21C(=O)O`, the Activity is on record as 24% with Rattus norvegicus [11]; 21% with Rattus norvegicus [12]; 24% in the data set on Rattus norvegicus [13]; 13% in the data set with Rattus norvegicus [14]; 30% in the data set with Rattus norvegicus [15]; 13% in the data set with Rattus norvegicus [16]. The Activity worked out at 5% with Rattus norvegicus [17] and 32% in the data set on Rattus norvegicus [18].

Source of the values: ChEMBL document CHEMBL5260832, “Hepatoprotective natural triterpenoids” (Eur J Med Chem, 2018).
